{"source": "patent US20210309669A1", "about": "“Heterocyclic Spiro Compounds As MAGL Inhibitors” (Pfizer Inc., priority 2018, published 2021)", "test": "Mouse subcutaneous neuropharmacokinetics study", "assay_type": "in vivo, Male C57Bl6 mice", "conditions": "male, C57Bl6, mouse, brain (cerebellum homogenate) and plasma, sc, subcutaneous dose of 1 mg/kg, read-out: Mouse Cb,u/Cp,u", "procedure": "The neuropharmacokinetics studies in mouse were conducted at Wuxi (Shanghai, China) with bioanalysis conducted at BioDuro (Beijing, China) with the exception of the Comparative-compound 3, which bioanalysis was conducted at Wuxi. All in vivo studies were conducted in accordance with regulations and established guidelines using protocols reviewed and approved by the Pfizer Worldwide Research and Development (WRD, or other) Institutional Animal Care and Use Committee.\nMale C57Bl6 mice were maintained on a 12-h light/dark cycle in a temperature- and humidity-controlled environment with free access to food and water. The test compounds (Examples 1 and 2 and Comparative Compounds 1-3) were administered as a subcutaneous dose of 1 mg/kg which was delivered in a dose volume of 10 mL/kg. The dose solution for all compounds was formulated in 5% DMSO/5% cremophor/90% saline. Blood and brain samples were collected at 0.5, 1, 2, 4, 8, 12, and 24 h post-dose (n=3 per time point). Blood samples were collected into tubes containing sodium fluoride and 4-(2-aminoethyl)benzenesulfonyl fluoride hydrochloride (AEBSF; final concentration 2 mg/mL) to inhibit hydrolase activity and placed on wet ice. Following centrifugation to afford plasma, the samples were transferred to polypropylene tubes and stored frozen at −20° C. to −80° C. until analysis. Immediately following blood collection the mice were euthanized by cervical dislocation and the brains were removed. The cerebellum was immediately frozen in liquid nitrogen and stored at −80° C. until analysis.\nCerebellum samples were thawed, diluted 1:4 (w/v) with water, and homogenized using an H-speed dispersator. Standards and controls were prepared in a similar manner using a brain homogenate prepared from untreated animals. The plasma standard curves were generated with species specific plasma. All plasma and brain homogenate samples were quantified via LC/MS-MS using multiple reaction monitoring with non-validated methods.\nEquilibrium dialysis using standard procedures [See Di et al., “Species independence in brain tissue binding using brain homogenates”; Drug Metab Dispos 39:1270-1277, 2011) were used for determination of the unbound fraction of the test compounds (Examples 1 and 2 and Comparative Compounds 1-3) in mouse plasma (fu,p; see Di et al., “impact of recovery on fraction unbound using equilibrium dialysis”; J Pharm Sci 101:1327-1335, 2012) and unbound fraction in rat brain homogenate (fu,b; see Di et al., “Species independence in brain tissue binding using brain homogenates”; Drug Metab Dispos 39:1270-1277, 2011). The determination of the unbound fraction in plasma also included the addition of AEBSF at a final concentration of 2 mg/mL to the incubation.\nThe pharmacokinetic parameters were computed by non-compartmental analysis using Watson Bioanalytical LIMS version 7.5. The AUC values were calculated using the linear trapezoidal method for both brain and plasma. Measured total plasma (Cp) and brain (Cb; assuming brain tissue density of 1 g/mL) concentrations were converted to unbound (free) values using the matrix specific binding factor (fu, p or fu,b) to determine free plasma (Cp,u) and free brain (Cb,u) values. All neurocompartmental ratios (Cb,u/Cp,u) were calculated through use of AUC values with the exception of Comparative Compounds 1 and 2 which used the mean of individual animal values due to insufficient data to calculate an AUC value."}
{"smiles": "O=C(OC(C(F)(F)F)C(F)(F)F)N1CCC2(CC1)C[C@@H](NS(=O)(=O)CC1CC1)CO2", "note": "[Example 1, 1,1,1,3,3,3-Hexafluoropropan-2-yl (3R)-3-{[(cyclopropylmethyl)sulfonyl]amino}-1-oxa-8-azaspiro[4.5]decane-8-carboxylate]", "values": [{"measurement": "Kp,uu (unbound brain/unbound plasma ratio)", "value": 1}]}
{"smiles": "O=C(OC(C(F)(F)F)C(F)(F)F)N1CCC2(CC1)C[C@@H](NS(=O)(=O)C1CC1)CO2", "note": "[Example 2, 1,1,1,3,3,3-Hexafluoropropan-2-yl (3R)-3-[(cyclopropylsulfonyl)amino]-1-oxa-8-azaspiro[4.5]decane-8-carboxylate]", "values": [{"measurement": "Kp,uu (unbound brain/unbound plasma ratio)", "value": 0.8}]}
